Reference: patent US11220494B2, “Cyclin dependent kinase inhibitors” (Pfizer Inc., priority 2018, dated 2022)

Assays:
[1] = target: CDK4/Cyclin D1 (Homo sapiens (Human), UniProt P11802); experiment: CDK4/Cyclin D1 mobility shift assay; assay type: biochemical; conditions: activated CDK4/Cyclin D1, 3.5 mM ATP, fit to Morrison equation; read-out: CDK4D1 Ki
Description: Biological Assays and Data CDK4/Cyclin D1 Mobility Shift Assay
(§1) The purpose CDK4/Cyclin D1 assay is to evaluate the inhibition (% inhibition, Kiapp and Ki values) in the presence of small molecule inhibitors by using a fluorescence based microfluidic mobility shift assay. […] The mobility shift assay electrophoretically separates the fluorescently labeled peptides (substrate and phosphorylated product) following the kinase reaction. Both substrate and product are measured and the ratio of these values is used to generate % Conversion of substrate to product by the LabChip EZ Reader.
The reaction was stopped after 195 minutes by the addition of 50 μL of 30 mM EDTA. Ki determinations were made from a plot of the fractional velocity as a function of inhibitor concentration fit to the Morrison equation with the enzyme concentration as a variable.
For CDK4 and CDK6 mobility shift assays, see also Morrison, J. F. (1969) Kinetics of the reversible inhibition of enzyme-catalysed reactions by tight-binding inhibitors, Biochimica et biophysica acta 185, 269-286; and Murphy, D. J. (2004) Determination of accurate KI values for tight-binding enzyme inhibitors: an in silico study of experimental error and assay design, Analytical biochemistry 327, 61-67.

[2] = target: CDK4 (Homo sapiens (Human), UniProt P11802); experiment: Phospho-Serine 795 Rb ELISA assay in JEKO-1 cells; assay type: cell-based; conditions: treated overnight, phospho-Ser795 Rb, read-out: CDK4 pRB S795 ELISA JEKO-1 cells IC50
Description: Phospho-Serine 795 Rb ELISA Assays
(§2) JEKO-1 or MV4-11 cells were seeded at 15,000 or 20,000 cells per well, respectively, in 100 μL growth media and allowed to incubate at 37° C. with 5% CO2 overnight. The following day, compounds were serially diluted from a 10 mM top dose for an 11-point 3-fold dilution curve in DMSO. Compounds were intermediately diluted 1:200 into growth media prior to diluting 1:5 on cells for final concentration 10 μM to 0.1 nM in 0.1% DMSO on cells. JEKO-1 and MV4-11 cells were treated were treated overnight, at 37° C. with 5% CO2. Cells were lysed in 100 μL/well CST lysis buffer on ice and transferred to pre-coated and blocked anti-phospho-Ser795 Rb ELISA plates for overnight incubation at 4° C. Plates were washed to remove residual, unbound cellular proteins and total Rb detection antibody added for 90 minutes at 37° C. Following wash to remove unbound total Rb antibody, the HRP tagged antibody was allowed to bind for 30 minutes at 37° C. Following wash to remove unbound HRP antibody, Glo Substrate Reagent was added and incubated protected from light for 5 to 10 minutes. Plates were read in luminescence mode and IC50 values calculated.

[3] = target: CDK6/Cyclin D3 (Homo sapiens (Human), UniProt Q00534); experiment: CDK6/Cyclin D3 mobility shift assay; assay type: biochemical; conditions: activated CDK6/Cyclin D3, 3.5 mM ATP, fit to Morrison equation; read-out: CDK6_D3 Ki
Description: CDK6/Cyclin D3 Mobility Shift Assay
as §1, with “of the CDK6/Cyclin D3” for “CDK4/Cyclin D1”, “conversion” for “Conversion”
The reaction was stopped after 95 minutes by the addition of 50 μL of 30 mM EDTA. Ki determinations were made from a plot of the fractional velocity as a function of inhibitor concentration fit to the Morrison equation with the enzyme concentration as a variable.

[4] = target: CDK6 (Homo sapiens (Human), UniProt Q00534); experiment: Phospho-Serine 795 Rb ELISA assay in MV4-11 cells; assay type: cell-based; conditions: treated overnight, phospho-Ser795 Rb, read-out: CDK6 pRB S795 ELISA MV4-11 cells IC50
Description: as §2

Chain of CDK4/Cyclin D1 (P11802 whole entry): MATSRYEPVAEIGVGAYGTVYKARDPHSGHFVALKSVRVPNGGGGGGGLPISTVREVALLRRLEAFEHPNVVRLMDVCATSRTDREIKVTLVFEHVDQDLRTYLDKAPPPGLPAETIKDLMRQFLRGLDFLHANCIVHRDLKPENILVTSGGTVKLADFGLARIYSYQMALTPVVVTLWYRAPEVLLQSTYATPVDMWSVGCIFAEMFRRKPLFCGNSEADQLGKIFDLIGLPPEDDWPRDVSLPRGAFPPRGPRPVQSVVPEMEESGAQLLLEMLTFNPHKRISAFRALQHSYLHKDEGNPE
Chain of CDK4/Cyclin D1 (P24385 whole entry partner): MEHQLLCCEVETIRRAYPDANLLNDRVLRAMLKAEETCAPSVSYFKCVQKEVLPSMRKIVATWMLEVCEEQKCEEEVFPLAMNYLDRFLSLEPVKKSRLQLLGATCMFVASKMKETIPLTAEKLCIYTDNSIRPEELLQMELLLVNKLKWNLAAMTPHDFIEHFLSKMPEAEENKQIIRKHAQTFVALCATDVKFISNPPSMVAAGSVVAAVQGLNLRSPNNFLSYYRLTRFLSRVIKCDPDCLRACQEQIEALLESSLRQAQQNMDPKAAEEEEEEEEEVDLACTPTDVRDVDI
Chain of CDK4 (P11802 2-303): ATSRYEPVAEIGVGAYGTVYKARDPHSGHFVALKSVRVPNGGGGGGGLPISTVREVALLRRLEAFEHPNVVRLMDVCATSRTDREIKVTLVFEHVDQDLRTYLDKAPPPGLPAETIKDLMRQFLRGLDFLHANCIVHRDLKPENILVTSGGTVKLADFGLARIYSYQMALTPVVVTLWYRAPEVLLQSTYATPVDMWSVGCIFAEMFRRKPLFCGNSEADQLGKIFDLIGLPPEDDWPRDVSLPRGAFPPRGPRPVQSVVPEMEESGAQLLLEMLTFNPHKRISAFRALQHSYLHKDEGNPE
Chain of CDK4 (P24385 whole entry partner): as the sequence (P24385 whole entry partner) above
Chain of CDK6/Cyclin D3 (Q00534 whole entry): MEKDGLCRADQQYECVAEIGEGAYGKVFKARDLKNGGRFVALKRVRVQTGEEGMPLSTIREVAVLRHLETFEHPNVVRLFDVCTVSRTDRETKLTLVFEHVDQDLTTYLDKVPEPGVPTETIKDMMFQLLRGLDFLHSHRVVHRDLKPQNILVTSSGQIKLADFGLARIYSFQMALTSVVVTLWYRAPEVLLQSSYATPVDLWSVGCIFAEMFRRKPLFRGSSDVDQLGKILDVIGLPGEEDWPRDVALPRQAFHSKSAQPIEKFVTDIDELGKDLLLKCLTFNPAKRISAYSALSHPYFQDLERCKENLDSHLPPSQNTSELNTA
Chain of CDK6/Cyclin D3 (P30281 whole entry partner): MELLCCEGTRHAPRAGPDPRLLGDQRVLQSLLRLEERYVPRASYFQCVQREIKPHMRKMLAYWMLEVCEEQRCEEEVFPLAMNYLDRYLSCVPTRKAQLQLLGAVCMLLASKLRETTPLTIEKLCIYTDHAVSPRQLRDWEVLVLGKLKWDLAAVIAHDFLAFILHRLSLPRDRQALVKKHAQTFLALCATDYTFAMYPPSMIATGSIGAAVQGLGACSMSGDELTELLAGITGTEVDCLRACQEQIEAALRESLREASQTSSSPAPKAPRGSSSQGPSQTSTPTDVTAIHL
Chain of CDK6 (Q00534 whole entry): as the sequence (Q00534 whole entry) above
Chain of CDK6 (P30281 whole entry partner): as the sequence (P30281 whole entry partner) above

CC(C)n1cnc2c(Cl)cc(-c3nc(N[C@@H]4CCN(S(C)(=O)=O)C[C@H]4O)ncc3Cl)cc21 [Example A16] gave a Ki [1] of 0.2 nM, an IC50 [2] of 25.7 nM and a Ki [3] of 2.7 nM. It also gave an IC50 [4] of 98.1 nM.
For CC(C)n1c(C(C)(C)O)nc2c(F)cc(-c3nc(N[C@H]4CCOC[C@H]4O)ncc3Cl)cc21 [Example A35], the Ki [1] was 1.5 nM, the IC50 [2] was 124 nM and the Ki [3] was 58.9 nM. It also gave an IC50 [4] of 967 nM.
For CC(C)c1c2cc(-c3nc(N[C@@H]4CCN(S(C)(=O)=O)C[C@H]4O)ncc3Cl)cc(F)c2nn1C [Example A25], the IC50 [2] was 13.3 nM, the Ki [3] was 1.3 nM and the IC50 [4] was 30.6 nM.
CCC1COCc2nc3c(F)cc(-c4nc(N[C@@H]5CCN(S(C)(=O)=O)C[C@H]5O)ncc4F)cc3n21 (some centres unmarked) [Example A17] was tested, and the Ki [1] was 0.1 nM, the IC50 [2] was 9.9 nM and the Ki [3] was 0.4 nM. The IC50 [4] was 13.4 nM.
With CS(=O)(=O)N1CC[C@@H](Nc2ncc(Cl)c(-c3cc(F)c4ncn(C5CCOC5)c4c3)n2)[C@H](O)C1 (some centres unmarked) [Example A14] the Ki [1] was 0.5 nM and the Ki [3] was 4.6 nM.
Work on CS(=O)(=O)N1CC[C@@H](Nc2ncc(Cl)c(-c3cc(F)c4ncn(C5CC5)c4c3)n2)[C@H](O)C1 [Example A15] yielded a Ki [1] of 0.3 nM and a Ki [3] of 2.4 nM.
CC1(C)COCc2nc3c(F)cc(-c4nc(N[C@@H]5CCN(S(C)(=O)=O)C[C@H]5O)ncc4F)cc3n21 [Example A18] gave a Ki [1] of 0.2 nM, an IC50 [2] of 25 nM and a Ki [3] of 2.3 nM. It also gave an IC50 [4] of 77.2 nM.
